The results in this text go back to patent US10684290B2, “LKB1 related diagnostics and treatments of cancer” (Dignity Health, priority 2014, dated 2020).

Experiment [1] has as its system H838-KDLKB1 and H838-LKB1 cells. Briefly: ATP measurement/cell viability (CellTiter-Glo), H838. In kind it is cell-based, human. The conditions noted are these: 48 h; 2DG 10 mM, Tm 1.25 μg/ml, BFA 30 ng/ml; p<0.005. The procedure:
(§1) 500 H838 or A427 cells stably expressing either LKB1 or KDLKB1 were plated in 96 well plates. The following day, cells were dosed with the indicated treatments for 48 h. Cellular ATP levels were assessed using the CellTiter-Glo Luminescent Cell Viability Assay substrate (Promega) according to manufacturer's instructions. Luminescence was read using the DTX 880 Multimode Detector. Cellular ATP/cell viability was calculated relative to vehicle treated control.
Background: Cellular ATP, detected with luciferase, serves as a proxy for viable cell number.

In experiment [2] the test system is LKB1 expressing and LKB1 null LA/NSCLC cell lines. The experiment can be described thus: Immunoblot of pAMPK and cleaved PARP in LKB1 expressing and LKB1 null cell lines. The experiment is classed as cell-based, human. The settings on record: 20 mM. As to the method: Cells were incubated on ice for 30 minutes with a lysis buffer containing 10 mM Tris-HCL, 150 mM NaCl, 0.1% SDS and 1% IGEPAL (Sigma). Immediately before use, a protease inhibitor cocktail (Sigma) and two phosphatase cocktails I and II (Sigma) were added to the lysis buffer. Lysates were transferred to tubes and insoluble material was pelleted by centrifugation. Nuclear protein fractions were isolated using a NE-PER protein extraction kit (ThermoFisher) according to manufacturer's instructions. Protein concentration was determined using the Bio-Rad DC protein kit. For immunoblotting, 50-100 ug of total protein lysates was separated by SDS-PAGE and transferred to nitrocellulose. Blots were blocked in 5% milk/Tris buffered saline/0.1% TWEEN® 20 (polyoxyethylenesorbitan monolaurate) (TBST) and primary antibodies were diluted in 5% Bovine Serum Albumin (Sigma)/TBST and incubated overnight at 4° C. Blots were developed with ECL plus (GE) and visualized on a Kodak Image station.
Cells were washed once with ice-cold PBS and incubated on ice for 30 min with a lysis buffer containing 10 mM Tris-HCl, 150 mM NaCl, 0.1% SDS and 1% IGEPAL (Sigma) to which a protease inhibitor cocktail (Sigma) and two phosphatase cocktails I and II (Sigma) were added immediately before use. Lysates were transferred to tubes and insoluble material was pelleted by centrifugation. […]
In general terms: A western blot detects proteins with antibodies after separation by electrophoresis.

Experiment [3] concerns A427-KDLKB1 and A427-LKB1 cells. The experiment can be described thus: ATP measurement/cell viability (CellTiter-Glo), A427. The settings on record: 48 h; 2DG 10 mM, Tm 1.25 μg/ml, BFA 30 ng/ml; p<0.005. In kind it is cell-based, human. As to the method: as §1
The test system of experiment [4] is BiP/GRP78 in KRas/LKB1^wt and KRas/LKB1^null NSCLC tumors. The experiment can be described thus: Immunohistochemical staining of BiP in NSCLC tumors of treated mice. The conditions noted are these: 500 mg/kg twice a day for two days. In kind it is in vivo. As to the method:
KRas^G12D/LKB1^lox/lox (KRas/LKB1^null) were generated by selective breeding of Lox-Stop-Lox KRas^G12D mice, purchased from Jackson Laboratories (Bar-Harbor, Me.), with LKB1^lox/lox mice obtained from Mouse Repository at the NCI and were inbred on a FVB background. KRas^G12D/LKB1^wt/wt (KRas/LKB1^wt) mice were generated by backcrossing Lox-Stop-Lox KRas^G12D onto a FVB background. Induction of lung tumors was performed. Briefly, six-week-old KRas/LKB1^null and KRas/LKB1^wt mice were transiently infected with 5×10^6 p.f.u. of Cre adenovirus (University of Iowa adenoviral core) via intranasal infection. At ˜6 weeks (KRas/LKB1^null) or ˜10 weeks (KRas/LKB1^wt) post-infection, mice underwent a baseline MRI scan to determine the baseline tumor burden. Mice with identified disease were randomized for daily treatment with either vehicle (PBS) or 500 mg/kg 2DG for three weeks, at which time mice received a follow-up MRI scan, sacrificed and the presence of disease confirmed by gross assessment and histology. For data generated in FIG. 2, KRas/LKB1^null and KRas/LKB1^wt mice with MRI positive tumors were treated either with 2DG (500 mg/kg) or vehicle (PBS) twice a day for two days before sacrifice and necropsy of tumor tissue. […]

Structures are written as SMILES.

As to `O=CC[C@@H](O)[C@H](O)[C@H](O)CO` [2DG, 2-deoxy-D-glucose], in experiment [1], the “Cellular ATP in H838-KDLKB1 compared to H838 re-expressing LKB1” value is recorded as “reduced ATP”. For the same molecule, in experiment [2], the “Phosphorylation of AMPK in LKB1 expressing H2009 cells (not in LKB1-deficient H23 cells)” value was “resulted in phosphorylation of AMPK”. For the same molecule, the “Cleavage of PARP (apoptosis) in LKB1 null LA cells (H2126, H838, H1395)” value in experiment [2] (12 and 18 hours) was “increased cleavage of poly(ADP-ribose) polymerase (PARP)”. The “Cellular ATP in A427-KDLKB1 compared to A427 re-expressing LKB1” value in experiment [3] is “reduced ATP”. In addition, the “BiP protein levels in NSCLC tumor cells of KRas/LKB1^wt mice (IHC)” value in experiment [4] is given as “significant increase in BiP protein levels”.
